# Read-outs that look alike come from different tables or passages of the source.
# Experiments:
# HEK293T cells = assay: Cytotoxicity of SM60 in HEK293T cells (CellTiter-Blue); type: cell-based; conditions: Homo sapiens, HEK-293T, 48 h, read-out: EC50 for inhibition of cell proliferation
# Procedure: HEK293T cells were seeded (2×10^4 cells/well) on a 96-well plate and grown in DMEM (supplemented with 10% heat-inactivated fetal bovine serum, 100 units/mL penicillin, 100 μg/mL streptomycin) for 48 h. Cells were then treated with DMSO (for control) or various concentrations of SM60. In a separate experiment, cells were briefly (3 min) irradiated with 365 nm UV following SM60 treatment and were allowed to grow at 37° C. for 48 h. Cell viability was measured using CellTiter-Blue® (Promega) by following the manufacturer's protocol. Equation 1,
# Y=Bottom+(Top−Bottom)/[1+10^((log EC50−X)*Hillslope)] (1),
# was used to fit a ten-point dose-response curve to determine the EC50 values for inhibition of cell-proliferation using GraphPad Prism 8.0. Top and Bottom are plateaus of the dose-response curve, X is the log of SM60-concentration, Hillslope is the slope factor or Hill slope. All the experiments were performed in triplicate.
# [1] = tested on: EcLeuRS-tRNACUA^EcLeu pair; assay: EGFP-39-TAG reporter expression assay in HEK293T cells; type: cell-based; conditions: EcLeuRS mutant (M40I, Y499I, Y527A, H529G, T252A)
# Excerpt: The first two pairs are restricted to structural analogs of phenylalanine and tryptophan, respectively, precluding their use to genetically encode SM60. However, both the archaeal pyrrolysyl (PylRS/tRNA^Pyl) and E. coli leucyl (EcLeuRS-tRNACUA^EcLeu) pairs have been engineered to charge UAAs structurally similar to SM60. […] This property has provided a facile route to rapidly expand the repertoire of genetically encoded UAAs without having to engineer new aaRS mutants for each distinct substrate. To explore if such a polyspecific aaRS can accept SM60 as a substrate, several existing PylRS and EcLeuRS mutants were screened using an EGFP-39-TAG expression assay in HEK293T cells in the presence of their cognate amber suppressor tRNA. […] Furthermore, UV irradiation of cells expressing EGFP-39-SM60 before lysis followed by protein purification and MS analysis afforded a single protein mass consistent with the complete deprotection and incorporation of citrulline at position 39 of EGFP (FIG. 2d).
# HEK293T cells were maintained at 37° C. in a humidified incubator supplemented with 5% CO2. […]
# EGFP fluorescence was analyzed 48 h after transfection. […] Lysate were clarified by centrifugation at 16,000×g for 10 min and 100 μL of supernatant was transferred to a clear-bottom 96-well plate for fluorescence measurement following previously described protocol. […]
# [2] = Photodecaging to citrulline with 365 nm UV (HPLC, LC-MS, 1H NMR); type: physicochemical; conditions: up to 5 min, PBS pH 7.4 with 2 mM DTT (SM70: 1:1 acetonitrile/PBS)
# Excerpt: FIG. 1. SM60, a photocaged-citrulline and its conversion to citrulline with 365 nm UV light. a, Conversion of peptidyl-arginine to peptidyl-citrulline by the PADs. b, Chemical structures of SM60 and SM70. c, Schematic representation of the incorporation of SM60 into proteins by an engineered LeuRS-tRNA^Leu pair and subsequent conversion to citrulline. d, Decaging of SM60 to citrulline with 365 nm UV irradiation. Left and right panels indicate the HPLC and ion chromatograms, showing the disappearance of SM60 and the formation of citrulline (Cit), respectively, with increasing UV exposure. Quantitative analyses of decaging and Cit formation are shown in the insets. Assay mixture: 1 mM SM60, 2 mM DTT, Phosphate-buffered saline pH 7.4.
# FIG. 8. ^1H NMR spectrum of SM60 in D2O after UV (365 nm) exposure for 1, 2, 3, 4 and 5 min. […] Furthermore, an upfield shift was also observed for the ‘b’ protons upon the formation of citrulline. The multiplets at 3.6-3.7 and 2.6-2.7 ppm are due to DTT used in the assay. Assay condition: 1 mM SM60, 2 mM DTT, D2O.
# FIG. 9. (A) Photodecaging of Fmoc-SM60 to produce Fmoc-Cit. (B) HPLC chromatograms indicating the disappearance of Fmoc-SM60 and the production of Fmoc-Cit with increasing UV exposure. […] Assay mixture: 0.5 mM Fmoc-SM60, 2 mM DTT, Phosphate-buffered saline pH 7.4. ESI-Mass spectra of Fmoc-SM60 (C) and Fmoc-Cit (D).
# FIG. 10. […]
smiles,measurement,setting,value
N[C@@H](CCCNC(=O)NCc1ccccc1[N+](=O)[O-])C(=O)O [SM60],EC50,HEK293T cells; SM60 alone,> 10 mM
same,EC50,HEK293T cells; combination of SM60 and 365 nm UV (3 min),4.5 ± 0.2 mM
same,EGFP-39-TAG reporter expression,[1],robust expression of the fluorescence reporter only when SM60 was supplemented in the medium
same,photodecaging / conversion to citrulline form,[2],quantitatively converted to Cit

# — patent US20240166594A1, “PHOTOCAGED CITRULLINE ANALOGS AND METHODS FOR SITE-SPECIFIC INCORPORATION OF CITRULLINE INTO PROTEINS” (University of Massachusetts, priority 2021, published 2024)
